The source made the active and inactive calls. The rule behind the calls is not given here.
Legend:
Homo sapiens = organism: Homo sapiens; assay: Inhibition of Fructose-1,6-bisphosphatase (unknown origin) preincubated for 10 min followed by addition of NADP+, PGI,G6PDH at 10 uM measured after 40 min by absorption based analysis relative to control; settings: time 50.0 min
[1] = Inhibition of Fructose-1,6-bisphosphatase (unknown origin); parameters: species or system Homo sapiens
[2] = Inhibition of Fructose-1,6-bisphosphatase (unknown origin) preincubated for 10 min followed by addition of NADP+, PGI,G6PDH and measured after 40 min by absorption based analysis; parameters: species or system Homo sapiens
Cytochrome P450 1A2 = target: T1, Cytochrome P450 1A2 (Homo sapiens, UniProt P05177); assay: Inhibition of CYP1A2 (unknown origin) incubated for 30 min in presence of NADPH by LC-MS/MS analysis; assay type: ADME
T1 sequence (P05177 whole entry): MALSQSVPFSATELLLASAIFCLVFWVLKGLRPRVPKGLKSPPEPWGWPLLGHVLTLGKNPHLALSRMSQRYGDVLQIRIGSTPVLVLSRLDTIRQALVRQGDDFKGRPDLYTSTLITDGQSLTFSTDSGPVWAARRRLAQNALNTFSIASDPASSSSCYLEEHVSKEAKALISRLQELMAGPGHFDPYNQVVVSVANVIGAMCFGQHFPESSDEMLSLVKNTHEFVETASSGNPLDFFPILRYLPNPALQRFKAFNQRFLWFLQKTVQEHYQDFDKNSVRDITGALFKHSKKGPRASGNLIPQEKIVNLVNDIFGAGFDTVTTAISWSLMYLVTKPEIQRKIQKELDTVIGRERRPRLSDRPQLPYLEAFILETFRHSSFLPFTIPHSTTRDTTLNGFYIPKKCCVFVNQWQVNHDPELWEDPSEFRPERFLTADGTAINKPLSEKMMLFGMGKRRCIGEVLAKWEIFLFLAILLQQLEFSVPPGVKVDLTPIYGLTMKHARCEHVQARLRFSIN

[3] = AUC (0 to infinity) in ICR mouse at 100 mg/kg, po by HPLC-MS/MS analysis; assay type: ADME, organism-based; settings: in vivo
[4] = MRT (0 to t) in ICR mouse at 100 mg/kg, po by HPLC-MS/MS analysis; assay type: ADME, organism-based; settings: in vivo
[5] = Cmax in ICR mouse at 100 mg/kg, po by HPLC-MS/MS analysis; assay type: ADME, organism-based; settings: in vivo
Cytochrome P450 3A4 = Cytochrome P450 3A4 (Homo sapiens, UniProt P08684); assay: Inhibition of CYP3A4 (unknown origin) incubated for 30 min in presence of NADPH by LC-MS/MS analysis; assay type: ADME
[6] = Half life in ICR mouse at 5 mg/kg, iv by HPLC-MS/MS analysis; assay type: ADME, organism-based; settings: in vivo
[7] = Clearance in ICR mouse at 5 mg/kg, iv by HPLC-MS/MS analysis; assay type: ADME, organism-based; settings: in vivo
[8] = AUC (0 to t) in ICR mouse at 5 mg/kg, iv by HPLC-MS/MS analysis; assay type: ADME, organism-based; settings: in vivo
Cytochrome P450 2C19 = Cytochrome P450 2C19 (Homo sapiens, UniProt P33261); assay: Inhibition of CYP2C19 (unknown origin) incubated for 30 min in presence of NADPH by LC-MS/MS analysis; assay type: ADME
[9] = MRT (0 to t) in ICR mouse at 5 mg/kg, iv by HPLC-MS/MS analysis; assay type: ADME, organism-based; settings: in vivo
[10] = Apparent volume of distribution in ICR mouse at 5 mg/kg, iv by HPLC-MS/MS analysis; assay type: ADME, organism-based; settings: in vivo, read-out: Vz
[11] = Oral Bioavailability in ICR mouse at 100 mg/kg by HPLC-MS/MS analysis; assay type: ADME, organism-based; settings: in vivo
[12] = Apparent volume of distribution in ICR mouse at 100 mg/kg, po by HPLC-MS/MS analysis; assay type: ADME, organism-based; settings: in vivo
[13] = Clearance in ICR mouse at 100 mg/kg, po by HPLC-MS/MS analysis; assay type: ADME, organism-based; settings: in vivo
[14] = MRT (0 to infinity) in ICR mouse at 5 mg/kg, iv by HPLC-MS/MS analysis; assay type: ADME, organism-based; settings: in vivo
[15] = Half life in ICR mouse at 100 mg/kg, po by HPLC-MS/MS analysis; assay type: ADME, organism-based; settings: in vivo
Cytochrome P450 3A5 = Cytochrome P450 3A5 (Homo sapiens, UniProt P20815); assay: Inhibition of CYP3A5 (unknown origin) incubated for 30 min in presence of NADPH by LC-MS/MS analysis; assay type: ADME
[16] = Tmax in ICR mouse at 100 mg/kg, po by HPLC-MS/MS analysis; assay type: ADME, organism-based; settings: in vivo
Mus musculus [17] = assay: Anti-diabetic activity against 16 hrs fasted ICR mouse assessed as reduced blood glucose level at 150 mg/kg, po measured after 30 to 90 min by oral pyruvate tolerance test; assay type: functional, organism-based; settings: time 30-90 min
[18] = MRT (0 to infinity) in ICR mouse at 100 mg/kg, po by HPLC-MS/MS analysis; assay type: ADME, organism-based; settings: in vivo
Cytochrome P450 2C9 = Cytochrome P450 2C9 (Homo sapiens, UniProt P11712); assay: Inhibition of CYP2C9 (unknown origin) incubated for 30 min in presence of NADPH by LC-MS/MS analysis; assay type: ADME
[19] = Tmax in ICR mouse at 5 mg/kg, iv by HPLC-MS/MS analysis; assay type: ADME, organism-based; settings: in vivo
Cytochrome P450 2D6 = Cytochrome P450 2D6 (Homo sapiens, UniProt P10635); assay: Inhibition of CYP2D6 (unknown origin) incubated for 30 min in presence of NADPH by LC-MS/MS analysis; assay type: ADME
[20] = Cmax in ICR mouse at 5 mg/kg, iv by HPLC-MS/MS analysis; assay type: ADME, organism-based; settings: in vivo
[21] = AUC (0 to t) in ICR mouse at 100 mg/kg, po by HPLC-MS/MS analysis; assay type: ADME, organism-based; settings: in vivo
[22] = AUC (0 to infinity) in ICR mouse at 5 mg/kg, iv by HPLC-MS/MS analysis; assay type: ADME, organism-based; settings: in vivo
Mus musculus [23] = assay: Anti-diabetic activity against 16 hrs fasted ICR mouse assessed as reduced blood glucose level at 150 mg/kg, po measured after 90 min by oral pyruvate tolerance test; assay type: functional, organism-based

Sequence of Cytochrome P450 2D6 (P10635 whole entry): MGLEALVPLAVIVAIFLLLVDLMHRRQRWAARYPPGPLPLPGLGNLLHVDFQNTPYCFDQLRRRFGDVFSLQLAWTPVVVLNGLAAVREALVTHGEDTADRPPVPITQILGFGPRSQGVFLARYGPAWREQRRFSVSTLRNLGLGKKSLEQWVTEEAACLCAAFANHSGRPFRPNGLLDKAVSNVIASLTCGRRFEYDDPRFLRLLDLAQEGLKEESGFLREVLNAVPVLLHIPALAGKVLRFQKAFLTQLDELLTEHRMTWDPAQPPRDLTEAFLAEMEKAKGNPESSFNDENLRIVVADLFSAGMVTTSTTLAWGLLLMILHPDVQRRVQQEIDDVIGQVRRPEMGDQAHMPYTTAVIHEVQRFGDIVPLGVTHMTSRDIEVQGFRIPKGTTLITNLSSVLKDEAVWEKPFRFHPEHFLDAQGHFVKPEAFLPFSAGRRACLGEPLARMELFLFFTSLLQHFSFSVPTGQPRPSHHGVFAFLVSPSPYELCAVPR
Sequence of Cytochrome P450 3A4 (P08684 whole entry): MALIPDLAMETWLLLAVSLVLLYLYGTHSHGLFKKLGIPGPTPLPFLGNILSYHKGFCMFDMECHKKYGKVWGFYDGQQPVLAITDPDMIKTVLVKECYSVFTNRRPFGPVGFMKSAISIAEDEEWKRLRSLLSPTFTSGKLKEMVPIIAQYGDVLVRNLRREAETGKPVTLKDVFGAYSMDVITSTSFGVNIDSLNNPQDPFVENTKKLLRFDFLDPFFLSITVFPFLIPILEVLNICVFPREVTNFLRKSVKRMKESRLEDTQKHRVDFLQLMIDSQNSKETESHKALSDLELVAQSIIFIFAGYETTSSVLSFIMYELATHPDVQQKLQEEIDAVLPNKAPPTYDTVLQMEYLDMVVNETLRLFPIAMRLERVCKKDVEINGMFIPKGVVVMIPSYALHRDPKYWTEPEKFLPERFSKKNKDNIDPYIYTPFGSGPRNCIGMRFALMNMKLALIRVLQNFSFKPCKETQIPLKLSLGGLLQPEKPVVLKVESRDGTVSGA
Sequence of Cytochrome P450 2C19 (P33261 whole entry): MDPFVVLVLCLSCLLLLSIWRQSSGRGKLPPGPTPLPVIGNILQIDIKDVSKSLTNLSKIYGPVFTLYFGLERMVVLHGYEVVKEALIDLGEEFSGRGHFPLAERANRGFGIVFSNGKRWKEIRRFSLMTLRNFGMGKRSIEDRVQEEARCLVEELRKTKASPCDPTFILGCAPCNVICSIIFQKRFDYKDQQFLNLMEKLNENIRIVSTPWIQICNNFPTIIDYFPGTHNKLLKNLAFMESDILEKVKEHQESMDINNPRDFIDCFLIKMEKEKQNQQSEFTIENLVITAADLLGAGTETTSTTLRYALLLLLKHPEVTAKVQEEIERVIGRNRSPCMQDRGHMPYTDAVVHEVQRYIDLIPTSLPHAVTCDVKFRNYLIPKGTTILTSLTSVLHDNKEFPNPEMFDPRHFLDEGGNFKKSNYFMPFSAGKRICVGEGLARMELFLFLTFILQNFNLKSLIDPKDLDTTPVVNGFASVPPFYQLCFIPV
Sequence of Cytochrome P450 2C9 (P11712 whole entry): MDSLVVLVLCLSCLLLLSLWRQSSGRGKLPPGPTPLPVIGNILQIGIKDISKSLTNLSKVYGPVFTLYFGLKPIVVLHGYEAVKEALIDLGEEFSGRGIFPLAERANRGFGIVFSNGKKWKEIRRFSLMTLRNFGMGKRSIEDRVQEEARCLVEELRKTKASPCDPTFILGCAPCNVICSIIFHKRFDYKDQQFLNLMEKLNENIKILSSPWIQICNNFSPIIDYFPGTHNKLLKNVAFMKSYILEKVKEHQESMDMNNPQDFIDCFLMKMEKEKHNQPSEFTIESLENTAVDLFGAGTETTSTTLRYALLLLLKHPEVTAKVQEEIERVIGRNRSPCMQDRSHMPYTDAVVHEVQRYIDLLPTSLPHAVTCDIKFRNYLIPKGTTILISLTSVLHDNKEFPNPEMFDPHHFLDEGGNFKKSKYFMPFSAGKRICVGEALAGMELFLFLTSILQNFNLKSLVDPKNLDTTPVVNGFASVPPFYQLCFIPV
Sequence of Cytochrome P450 3A5 (P20815 whole entry): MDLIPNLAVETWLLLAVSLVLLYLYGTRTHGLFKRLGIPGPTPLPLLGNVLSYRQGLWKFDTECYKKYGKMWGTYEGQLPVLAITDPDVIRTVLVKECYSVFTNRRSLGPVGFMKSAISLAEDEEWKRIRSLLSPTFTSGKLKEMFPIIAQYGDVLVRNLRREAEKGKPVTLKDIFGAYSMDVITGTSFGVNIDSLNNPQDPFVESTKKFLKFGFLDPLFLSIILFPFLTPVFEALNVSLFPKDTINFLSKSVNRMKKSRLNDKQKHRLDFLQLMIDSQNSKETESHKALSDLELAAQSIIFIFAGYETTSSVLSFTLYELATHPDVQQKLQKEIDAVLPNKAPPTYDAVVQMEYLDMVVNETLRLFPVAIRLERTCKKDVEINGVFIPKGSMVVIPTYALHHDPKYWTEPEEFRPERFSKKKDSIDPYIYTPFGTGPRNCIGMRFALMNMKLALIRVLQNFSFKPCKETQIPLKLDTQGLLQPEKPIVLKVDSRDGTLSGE

## COc1ccc(S(=O)(=O)Nc2cccc(-c3nc4ccccc4n3-c3ccc(NC(C)=O)cc3)c2)cc1
Homo sapiens
  inhibition: 36.8%

## O=S(=O)(Nc1cccc(-c2nc3ccccc3n2Cc2ccc(Cl)cc2)c1)c1ccc(Cl)cc1
Homo sapiens
  inhibition: 16.2%

## COc1ccc(S(=O)(=O)Nc2cccc(-c3nc4ccccc4[nH]3)c2)cc1
Homo sapiens
  inhibition: 0%

## COc1ccc(S(=O)(=O)NC(=O)c2cccc(-c3nc4ccccc4n3C(C)C)c2)cc1
Homo sapiens
  inhibition: 0%

## S=C(SSC(=S)n1cccc1)n1cccc1
[1]
  IC50: 0.13 µM

## COc1ccccc1CNC(=O)N1C(=O)c2ccccc2S1(=O)=O
[1]
  IC50: 1.7 µM

## O=S(=O)(Nc1cccc(-c2nc3ccccc3n2C2CCCCC2)c1)c1ccc(Cl)cc1
Homo sapiens
  inhibition: 24.8%

## COc1ccc(S(=O)(=O)Nc2cc(Cl)cc(-c3nc4ccccc4[nH]3)c2)cc1
Homo sapiens
  inhibition: 18.2%

## O=S(=O)(Nc1ccccc1-c1nc2ccccc2n1Cc1ccc(Cl)cc1)c1ccc(Cl)cc1
Homo sapiens
  inhibition: 10.2%

## CC(C)n1c(-c2cccc(NS(=O)(=O)c3ccc(Cl)cc3)c2)nc2ccccc21
Homo sapiens
  inhibition: 7.1%

## CC(C)=CCc1c(O)cc(O)c2c(=O)c(O)c(-c3ccc(O)c(O)c3)oc12
[1]
  IC50: 3.62 µM

## CC(=O)Nc1ccc(-n2c(-c3ccccc3NS(=O)(=O)c3ccc(Cl)cc3)nc3ccccc32)cc1
Homo sapiens
  inhibition: 25%

## COc1ccc(S(=O)(=O)Nc2cccc(-c3nc4ccccc4n3C3CCCCC3)c2)cc1
Homo sapiens
  inhibition: 47.4%

## COc1ccc(S(=O)(=O)Nc2cccc(-c3nc4ccccc4n3C(C)C)c2)cc1
Homo sapiens
  inhibition: 7.1%

## COc1ccc(S(=O)(=O)Nc2ccccc2-c2nc3ccccc3n2Cc2ccc(Cl)cc2)cc1
Homo sapiens
  inhibition: 5.6%

## O=C(NS(=O)(=O)c1ccc(Cl)cc1)c1cccc(-c2nc3ccccc3[nH]2)c1
Homo sapiens
  inhibition: 0%

## Cn1c(-c2cccc(NS(=O)(=O)c3ccc(Cl)cc3)c2)nc2ccccc21
Homo sapiens
  inhibition: 0%

## O=S(=O)(Nc1cccc(-c2nc3ccccc3n2-c2ccc(Cl)cc2)c1)c1ccc(Cl)cc1
[2]
  IC50: 8.04 µM
Homo sapiens
  inhibition: 63.5%

## O=S(=O)(Nc1cccc(-c2nc3ccccc3[nH]2)c1)c1ccc(Cl)cc1
Homo sapiens
  inhibition: 0%

## COc1ccc(S(=O)(=O)NC(=O)c2cccc(-c3nc4ccccc4[nH]3)c2)cc1
Homo sapiens
  inhibition: 20.8%

## COc1ccc(S(=O)(=O)Nc2ccccc2-c2nc3ccccc3n2-c2ccc(Cl)cc2)cc1
Homo sapiens
  inhibition: 28.9%

## Nc1ncnc2c1ncn2[C@@H]1O[C@H](COP(=O)(O)O)[C@@H](O)[C@H]1O [ADENOSINE PHOSPHATE]
[2]
  IC50: 3.29 µM
Homo sapiens
  inhibition: 81.3%

## CC(C)n1c(-c2cccc(C(=O)NS(=O)(=O)c3ccc(Cl)cc3)c2)nc2ccccc21
Homo sapiens
  inhibition: 0%

## O=S(=O)(Nc1cc(Cl)cc(-c2nc3ccccc3[nH]2)c1)c1ccc(Cl)cc1
Homo sapiens
  inhibition: 5.4%

## O=c1cc(-c2ccccc2)oc2ccc3ccccc3c12 [BETA-NAPHTHOFLAVONE]
Cytochrome P450 1A2
  IC50: 0.148 µM

## COc1ccc(S(=O)(=O)Nc2ccccc2-c2nc3ccccc3n2-c2ccc(NC(C)=O)cc2)cc1
Homo sapiens
  inhibition: 36.8%

## COc1ccc(S(=O)(=O)Nc2ccccc2-c2nc3ccccc3n2C2CCCCC2)cc1
Homo sapiens
  inhibition: 17.3%

## COc1ccc(S(=O)(=O)Nc2cccc(-c3nc4ccccc4n3C)c2)cc1
Homo sapiens
  inhibition: 5.7%

## COc1ccc(S(=O)(=O)Nc2cccc(-c3nc4ccccc4n3-c3ccc(Cl)cc3)c2)cc1
[2]
  IC50: 5.35 µM
Homo sapiens
  inhibition: 52.6%

## COc1ccc(S(=O)(=O)Nc2cccc(-c3nc4ccccc4n3Cc3ccc(Cl)cc3)c2)cc1
Homo sapiens
  inhibition: 7.1%

## O=C(NS(=O)(=O)c1ccc(F)cc1)c1ccccc1N1CCN(Cc2nc3ccccc3n2C2CCCCC2)CC1
Homo sapiens
  inhibition: 64.3%

## COc1ccc(S(=O)(=O)NC(=O)c2cc(Cl)cc(-c3nc4ccccc4[nH]3)c2)cc1
[3]
  AUC(0-inf): 19500 ng·h/mL
[4]
  MRT last: 3 h
[5]
  Cmax: 7160 ng/mL
Cytochrome P450 3A4
  IC50: 20 µM
[6]
  half-life: 1.79 h
[7]
  clearance: 5.27 mL/min/kg
[8]
  AUC(0-t): 15900 ng·h/mL
Cytochrome P450 2C19
  IC50: > 50 µM
[9]
  MRT last: 1.86 h
[10]
  Vd: 0.813 L/kg
[2]
  IC50: 2.08 µM
[11]
  bioavailability: 6.15%
[12]
  Vz: 9.799 L/kg
Homo sapiens
  inhibition: 81.8%
[13]
  CL/F: 87 mL/min/kg
[14]
  MRT inf: 1.86 h
[15]
  half-life: 1.29 h
Cytochrome P450 3A5
  IC50: 20 µM
[16]
  Tmax: 0.25 h
Mus musculus [17]
  Activity: Active
[18]
  MRT inf: 3 h
Cytochrome P450 2C9
  IC50: 1.31 µM
[19]
  Tmax: 1.98 min
Cytochrome P450 2D6
  IC50: 36.8 µM
[20]
  Cmax: 33500 ng/mL
[21]
  AUC(0-t): 19500 ng·h/mL
[22]
  AUC(0-inf): 15900 ng·h/mL
Cytochrome P450 1A2
  IC50: 47.2 µM

## O=C(NS(=O)(=O)c1ccc(Cl)cc1)c1cc(Cl)cc(-c2nc3ccccc3[nH]2)c1
Mus musculus [23]
  Activity: Active
[2]
  IC50: 1.4 µM
Homo sapiens
  inhibition: 88.3%

## O=S(=O)(Nc1ccccc1-c1nc2ccccc2n1-c1ccc(Cl)cc1)c1ccc(Cl)cc1
Homo sapiens
  inhibition: 28.9%

## COc1ccc(S(=O)(=O)NC(=O)c2cccc(-c3nc4ccccc4n3C)c2)cc1
Homo sapiens
  inhibition: 5.7%

## Cn1c(-c2cccc(C(=O)NS(=O)(=O)c3ccc(Cl)cc3)c2)nc2ccccc21
Homo sapiens
  inhibition: 4%

## O=S(=O)(Nc1ccccc1-c1nc2ccccc2n1C1CCCCC1)c1ccc(Cl)cc1
Homo sapiens
  inhibition: 39.8%

## CC(=O)Nc1ccc(-n2c(-c3cccc(NS(=O)(=O)c4ccc(Cl)cc4)c3)nc3ccccc32)cc1
Homo sapiens
  inhibition: 21.1%

## O=C(NS(=O)(=O)c1ccc(F)cc1)c1cc(Cl)cc(-c2nc3ccccc3[nH]2)c1
Mus musculus [23]
  Activity: Active
[2]
  IC50: 2.16 µM
Homo sapiens
  inhibition: 96.3%
